Literature values in patent publication US12193458B2, “Sweetening composition and preparation method and use thereof” (HUNAN NUTRAMAX INC., priority 2019, dated 2025).

Settings: component of Rubus suavissimus S. Lee

Compound	taste
C[C@@H]1CC[C@]2(C(=O)O[C@@H]3O[C@H](CO)[C@@H](O)[C@H](O)[C@H]3O)CC[C@]3(C)C(=CC[C@@H]4[C@@]5(C)C[C@@H](O)[C@H](O)[C@@](C)(CO)[C@@H]5CC[C@]43C)[C@@H]2[C@]1(C)O [Nigaichigoside F1]	bitter taste
C[C@@]12CCC[C@@](C)(C(=O)O[C@@H]3O[C@H](CO)[C@@H](O)[C@H](O)[C@H]3O)[C@H]1CC[C@@]13C[C@@H](CC[C@H]12)[C@@](O)(CO)C3 [Paniculoside IV]	tasteless
C=C1C[C@@]23CC[C@H]4[C@@](C)(CCC[C@@]4(C)C(=O)O)[C@@H]2CC[C@]1(O[C@@H]1O[C@H](CO)[C@@H](O)[C@H](O)[C@H]1O)C3 [Steviolmonoside]	sweet taste
CC1(C)C(O)CCC2(C)C3CCC4CC3(CCC12)CC4(O)COC1OC(CO)C(O)C(O)C1O (stereo not shown) [Suavioside A]	sweet taste
CC1(C)C(=O)CCC2(C)C3CCC4CC3(CCC12)CC4(O)COC1OC(CO)C(O)C(O)C1O (stereo not shown) [Sugereoside]	bitter taste
Suavioside B	sweet taste
Suavioside C1	bitter taste
Suavioside D1	tasteless
Suavioside D2	bitter taste
Suavioside E	tasteless
Suavioside F	bitter taste
Suavioside G	sweet taste
Suavioside H	sweet taste
Suavioside I	sweet taste
Suavioside J	sweet taste

Settings: pH value of 3 to 12, heated, under light irradiation

decomposition when heated in a water solution	Compound
will not decompose significantly	C=C1C[C@@]23CC[C@H]4[C@@](C)(CCC[C@@]4(C)C(=O)O[C@@H]4O[C@H](CO)[C@@H](O)[C@H](O)[C@H]4O)[C@@H]2CC[C@]1(O[C@@H]1O[C@H](CO)[C@@H](O)[C@H](O)[C@H]1O)C3 [Rubusoside]
